# Results taken from ChEMBL document CHEMBL2417360, “Parguerene and precarriebowmide, two classes of lipopeptides from the marine cyanobacterium Moorea producens” (J Nat Prod, 2013).
# Experiment: Cytotoxicity against human H460 cells after 48 hrs by MTT assay
# Type: functional, cell-based
# Details: NCI-H460, 48 h
compound,measurement,value
CCC[C@H]1NC(=O)[C@H](C)NC(=O)[C@H](CC(C)C)N(C)C(=O)[C@H](Cc2ccccc2)NC(=O)[C@H](CCSC)NC(=O)[C@@H](Cc2ccccc2)N(C)C(=O)[C@@H](C(C)C)OC(=O)[C@H]1C [PRECARRIEBOWMIDE],IC50,> 10 µM
